Source: US10221190B2, “Biguanide compounds and use thereof” (IMMUNOMET THERAPEUTICS INC., priority 2013, dated 2019)

What follows are molecules tested on HCT116 cell (assay: Inhibitory activity against cancer cells (MTT cell viability), HCT116). Settings: Homo sapiens, HCT 116, 48 hr incubation.
Assay type: cell-based, human
Procedure: The inhibitory activities of biguanide derivatives against cancer cells were evaluated in the cell line SK-MEL-28 derived from human Melanoma cell, Miapaka-2 cell line derived from human pancreatic cancer cell and HCT116 cell line derived from human colorectal cancer cell by measuring the concentration that inhibits 50% of the growth of the cell lines (the half maximal inhibitory concentration, IC50).
Firstly, SK-MEL-28 cells were grown to be density of 5,000 cells/well in RPMI-1640 media supplemented with 10% (v/v) bovine calf serum, on 96-well plates for 16 hr. To measure the IC50 of each compound, the cells were incubated for 48 hr with the 100 mM PBS stock compounds at an amount of 10 mM, 1 mM, 200 uM, 40 uM, 8 uM, 1.6 uM, 0.32 uM or 0.064 uM; 50 mM PBS and EtOH stock compounds at an amount of 1 mM, 200 uM, 40 uM, 8 uM, 1.6 uM, 0.32 uM and 0.064 uM; and 50 mM DMSO stock compounds at an amount of 100 uM, 25 uM, 6.25 uM, 1.56 uM, 0.39 uM, 0.10 uM and 0.02 uM, respectively. To test the viable cells after incubation with each compound, the cell cultures were incubated additionally for 2 hr in the presence of MTT. The produced formazan crystals were dissolved with dimethyl sulfoxide and then measured by detecting the absorbance at 560 nm.
After the 48 hr incubation, the viable cells were counted on the well plates treated with the compounds of the Examples relative to the count of the viable cells on the non-treated plates, and then was represented as the cell viability (%). By using the cell viability (%) result, the cell viability curve was plotted, and IC50 was calculated from the curve to evaluate the inhibitory activity against cancer cells.
The inhibitory activities of biguanide derivatives against cancer cells of Miapaca-2 cell and HCT116 cell were evaluated according to the substantially same method as described in SK-MEL-28 cell, except that DMEM media supplemented with 10% (v/v) bovine calf serum was used instead of RPMI-1640 media supplemented with 10% (v/v) bovine calf serum for SK-MEL-28 cell.

Question: With `Cc1ccc2[nH]c(NC(=N)N3CCCC3)nc2c1` [Example 94, N-(5-methyl-1H-benzo[d]imidazol-2-yl)pyrrolidine-1-carboximidamide] as the molecule, how does the IC50 read?
Answer: The IC50 was > 100 µM.

Question: For `N=C(NC(=N)Nc1cccnc1)Nc1ccc(C(F)(F)F)cc1` [Example 62, N1-3-pyridine-N5-(4-trifluoromethyl)phenyl biguanide], which IC50 is on record?
Answer: The IC50 was > 100 µM.

Question: For `N=C(NC(=N)NC1CCCC1)Nc1ccc(F)cc1` [Example 69, N1-cyclopentyl-N5-(4-fluoro)phenyl biguanide], which IC50 is on record?
Answer: Its IC50 is 68.5 µM.

Question: With `N=C(NC(=N)N1CCC(F)(F)C1)Nc1ccc(OC(F)(F)F)cc1` [Example 51, N1-3,3-difluoro pyrrolidine-N5-(4-trifluoromethoxy)phenyl biguanide] as the molecule, how does the IC50 read?
Answer: The IC50 was 7.83 µM.

Question: With `COc1ccc(NC(=N)NC(=N)N2CCCC2)cc1Cl` [Example 3, N1-pyrrolidine-N5-(3-chloro-4-methoxy)phenyl biguanide] as the molecule, how does the IC50 read?
Answer: The IC50 was > 100 µM.

Question: With `CC1CC(C)CN(C(=N)NC(=N)Nc2ccc(CCN)cc2)C1` (stereo not shown) [Example 49] as the molecule, how does the IC50 read?
Answer: Its IC50 is > 100 µM.

Question: How did the IC50 turn out when `CN1CCN(C(=N)NC(=N)Nc2ccc(Cl)c(C(F)(F)F)c2)CC1` [Example 38, N1-4-methyl piperazine-N5-(4-chloro-3-trifluoromethyl)phenyl biguanide] was run?
Answer: Its IC50 is 11.7 µM.

Question: For `N=C(NCc1ccco1)NC(=N)Nc1ccc(OC(F)(F)F)cc1` [Example 71, N1-furan-2-ylmethyl-N5-(4-trifluoromethoxy)phenyl biguanide], which IC50 is on record?
Answer: Its IC50 is 6.9 µM.

Question: `N=C(N)NC(=N)Nc1ccc(F)cc1` [Example 55, N5-4-fluorophenyl biguanide] was tested. Which IC50 did it give?
Answer: The IC50 was > 100 µM.

Question: Which IC50 does the source give for `N=C(NCCc1ccc(F)cc1)NC(=N)N1CCCC1` [Example 12, N1-pyrrolidine-N5-(4-fluoro)phenethyl biguanide] here?
Answer: The IC50 was 81.9 µM.

Question: For `N=C(NC(=N)N1CCCC1)Nc1ccc(CCN)cc1` [Example 47], which IC50 is on record?
Answer: Its IC50 is > 100 µM.

Question: With `N=C(N)NC(=N)Nc1cccc(Cl)c1Cl` [Example 59, N5-(2,3-dichloro)phenyl biguanide] as the molecule, how does the IC50 read?
Answer: The IC50 was > 100 µM.

Question: `C[C@@H]1CCC[C@H](C)N1C(=N)NC(=N)Nc1ccc(CCN)cc1` [Example 46] was tested. Which IC50 did it give?
Answer: Its IC50 is > 100 µM.

Question: Which IC50 does the source give for `N=C(NCc1ccco1)NC(=N)Nc1ccc(Cl)cc1` [Example 70, N1-furan-2-ylmethyl-N5-(4-chloro)phenyl biguanide] here?
Answer: The IC50 was 13.5 µM.

Question: With `CN1CCN(C(=N)NC(=N)Nc2ccc(OC(F)(F)F)c(F)c2)CC1` [Example 37, N1-4-methyl piperazine-N5-(3-fluoro-4-trifluoromethoxy)phenyl biguanide] as the molecule, how does the IC50 read?
Answer: Its IC50 is 32.3 µM.

Question: For `N=C(NC(=N)N1CCCC1)Nc1ccc(-c2cccc(F)c2)cc1` [Example 11, N1-pyrrolidine-N5-(3′-fluorobiphenyl-4-yl) biguanide], which IC50 is on record?
Answer: The IC50 was 6.46 µM.

Question: How did the IC50 turn out when `N=C(NCc1ccco1)NC(=N)Nc1ccc(C(F)(F)F)cc1` [Example 72, N1-furan-2-ylmethyl-N5-(4-trifluoromethyl)phenyl biguanide] was run?
Answer: Its IC50 is 8.8 µM.

Question: For `C[C@@H]1CCC[C@H](C)N1C(=N)NC(=N)Nc1ccc(CNC(=O)c2ccccc2-c2c3ccc(=O)cc-3oc3cc(O)ccc23)cc1` [Example 84, N-(4-(3-(((2R,6S)-2,6-dimethylpiperidin-1-yl)(imino)methyl)guanidino)benzyl)-2-(6-hydroxy-3-oxo-3H-xanthen-9-yl)benzamide], which IC50 is on record?
Answer: Its IC50 is 27.4 µM.

Question: Which IC50 does the source give for `N=C(NC(=N)Nc1cccnc1)Nc1ccc(OC(F)(F)F)cc1` [Example 63, N1-3-pyridine-N5-(4-trifluoromethoxy)phenyl biguanide] here?
Answer: Its IC50 is > 100 µM.

Question: Which IC50 does the source give for `CN1CCN(C(=N)NC(=N)Nc2ccc(Br)cc2)CC1` [Example 31, N1-4-methyl piperazine-N5-(4-bromo)phenyl biguanide] here?
Answer: The IC50 was 93.6 µM.

Question: How did the IC50 turn out when `CN1CCN(C(=N)NC(=N)Nc2ccc(OC(F)(F)F)c(Cl)c2)CC1` [Example 36, N1-4-methyl piperazine-N5-(3-chloro-4-trifluoromethoxy)phenyl biguanide] was run?
Answer: The IC50 was 7.1 µM.

Question: With `N=C(Nc1nc2ccccc2[nH]1)N1CCCC1` [Example 96, N-(1H-benzo[d]imidazol-2-yl)pyrrolidine-1-carboximidamide] as the molecule, how does the IC50 read?
Answer: Its IC50 is > 100 µM.

Question: How did the IC50 turn out when `N=C(Nc1nc2cc(F)ccc2[nH]1)N1CCCC1` [Example 93, N-(5-fluoro-1H-benzo[d]imidazol-2-yl)pyrrolidine-1-carboximidamide] was run?
Answer: The IC50 was > 100 µM.

Question: With `N=C(NC(=N)Nc1cnccn1)Nc1ccc(C(F)(F)F)cc1` [Example 67, N1-2-pyrazine-N5-(4-trifluoromethyl)phenyl biguanide] as the molecule, how does the IC50 read?
Answer: The IC50 was 50.7 µM.

Question: How did the IC50 turn out when `N=C(NC(=N)N1CCc2ccccc2C1)Nc1ccc(OC(F)(F)F)cc1` [Example 87, N—(N-(4-(trifluoromethoxy)phenyl)carbamimidoyl)-3,4-dihydroisoquinolin-2(1H)-carboximidamide] was run?
Answer: Its IC50 is 2.57 µM.

Question: Which IC50 does the source give for `N=C(NCc1ccc(C(F)(F)F)cc1)NC(=N)Nc1cccnc1` [Example 64, N1-3-pyridine-N5-(4-trifluoromethyl)benzyl biguanide] here?
Answer: The IC50 was 29.2 µM.

Question: With `CN(C)C(=N)NC(=N)Nc1ccc(SCC(=O)N2CCCCC2)cc1` [Example 61, N1,N1-dimethyl-N5-4-(2-oxo-2-(piperidin-1-yl)ethylthio)phenyl biguanide] as the molecule, how does the IC50 read?
Answer: Its IC50 is > 100 µM.

Question: How did the IC50 turn out when `N=C(N)NC(=N)Nc1ccc(Cl)c(Cl)c1` [Example 56] was run?
Answer: The IC50 was 34.8 µM.

Question: For `N=C(NC(=N)NC1CCCC1)Nc1ccc(OC(F)(F)F)cc1` [Example 68, N1-cyclopentyl-N5-(4-trifluoromethoxy)phenyl biguanide], which IC50 is on record?
Answer: The IC50 was 53.1 µM.

Question: How did the IC50 turn out when `N=C(N)NC(=N)Nc1cc(C(F)(F)F)ccc1Cl` [Example 57, N5-(2-chloro-5-trifluoromethyl)phenyl biguanide] was run?
Answer: The IC50 was > 100 µM.

Question: With `COc1ccc2[nH]c(NC(=N)N3CCCC3)nc2c1` [Example 95, N-(5-methoxy-1H-benzo[d]imidazol-2-yl)pyrrolidine-1-carboximidamide] as the molecule, how does the IC50 read?
Answer: Its IC50 is > 100 µM.

Question: For `N=C(NC(=N)N1CCc2ccccc21)Nc1ccc(Oc2ccccc2)cc1` [Example 90, N—(N-(4-phenoxyphenyl)carbamimidoyl)indoline-1-carboximidamide], which IC50 is on record?
Answer: The IC50 was 27.7 µM.

Question: Which IC50 does the source give for `CCNC(=O)c1cccc(CNC(=N)NC(=N)N2CCCC2)c1` [Example 30, N-ethyl-3-((3-(imino(pyrrolidin-1-yl)methyl)guanidino)methyl)benzamide] here?
Answer: Its IC50 is > 100 µM.

Question: For `N=C(Nc1nc2cc(OC(F)(F)F)ccc2[nH]1)N1CCCC1` [Example 92, N-(5-(trifluoromethoxy)-1H-benzo[d]imidazol-2-yl)pyrrolidine-1-carboximidamide], which IC50 is on record?
Answer: The IC50 was > 100 µM.

Question: How did the IC50 turn out when `CN1CCN(C(=N)NC(=N)Nc2ccccc2Br)CC1` [Example 33, N1-4-methyl piperazine-N5-(2-bromo)phenyl biguanide] was run?
Answer: The IC50 was > 100 µM.

Question: Which IC50 does the source give for `N=C(NC(=N)N1CCCC1)NC1CCCc2ccccc21` (stereo not shown) [Example 15, N1-pyrrolidine-N5-(1,2,3,4-tetrahydronaphthalen-1-yl) biguanide] here?
Answer: Its IC50 is 712 µM.

Question: For `CC1CC(C)CN(C(=N)NC(=N)Nc2ccc(CCNC(=O)CCCCC3CC4NC(=O)NC4S3)cc2)C1` (stereo not shown) [Example 79, N-(4-(3-((3,5-dimethylpiperidin-1-yl)(imino)methyl)guanidino)phenethyl)-5-(2-oxohexahydro-1H-thieno[2,3-d]imidazol-5-yl)pentanamide], which IC50 is on record?
Answer: The IC50 was > 100 µM.

Question: With `N=C(NC(=N)N1CCC(F)(F)CC1)Nc1ccc(OC(F)(F)F)cc1` [Example 52, N1-4,4-difluoro piperidine-N5-(4-trifluoromethoxy)phenyl biguanide] as the molecule, how does the IC50 read?
Answer: The IC50 was 7.65 µM.

Question: With `COc1ccc(NC(=N)NC(=N)N2CCCC2)cc1` [Example 2, N1-pyrrolidine-N5-(4-methoxy)phenyl biguanide] as the molecule, how does the IC50 read?
Answer: Its IC50 is > 100 µM.

Question: With `N=C(N)NC(=N)Nc1ccc(F)c(Cl)c1` [Example 58, N5-(3-chloro-4-fluoro)phenyl biguanide] as the molecule, how does the IC50 read?
Answer: Its IC50 is > 100 µM.

Question: How did the IC50 turn out when `CN(C)c1ccc(NC(=N)NC(=N)N2CCCC2)cc1` [Example 5, N1-pyrrolidine-N5-(4-dimethylamino)phenyl biguanide] was run?
Answer: The IC50 was > 100 µM.

Question: Which IC50 does the source give for `N=C(NC(=N)N1CCC(O)CC1)Nc1ccc(Oc2ccccc2)cc1` [Example 21, N1-4-hydroxy piperidine-N5-(4-phenoxy)phenyl biguanide] here?
Answer: The IC50 was > 100 µM.

Question: With `N=C(NC(=N)N1CCCC1)Nc1ccc(NC(=O)CCCCC2CC3NC(=O)NC3S2)cc1` (stereo not shown) [Example 82, N-(4-(3-(imino(pyrrolidin-1-yl)methyl)guanidino)phenyl)-5-(2-oxohexahydro-1H-thieno[2,3-d]imidazol-5-yl)pentanamide] as the molecule, how does the IC50 read?
Answer: The IC50 was > 100 µM.

Question: `N=C(N)NC(=N)Nc1ccc(SC(F)(F)F)cc1` [Example 60, N5-(4-trifluoromethylthio)phenyl biguanide] was tested. Which IC50 did it give?
Answer: Its IC50 is 49.8 µM.

Question: Which IC50 does the source give for `CN1CCN(C(=N)NC(=N)NCc2ccc(F)c(OC(F)(F)F)c2)CC1` [Example 41, N1-4-methyl piperazine-N5-(4-fluoro-3-trifluoromethoxy)benzyl biguanide] here?
Answer: Its IC50 is > 100 µM.

Question: `N=C(NC(=N)N1CCc2ccccc21)Nc1cccc(Oc2ccccc2)c1` [Example 91, N—(N-(3-phenoxyphenyl)carbamimidoyl)indoline-1-carboximidamide] was tested. Which IC50 did it give?
Answer: Its IC50 is 11 µM.
